We go through one molecule from US20240035973A1, “METHODS AND COMPOSITIONS OF STABLE THALLIUM FLUX ASSAYS FOR DETECTING MODULATORS OF ION CHANNELS” (ION Biosciences, priority 2022, published 2024).

pEC50: −log10 of the molar value. Read-outs that look alike come from different tables or passages of the source.

In assay [1] the target is T1, GIRK (Homo sapiens, UniProt P48051+P48549).
T1 sequence (P48549 1-501): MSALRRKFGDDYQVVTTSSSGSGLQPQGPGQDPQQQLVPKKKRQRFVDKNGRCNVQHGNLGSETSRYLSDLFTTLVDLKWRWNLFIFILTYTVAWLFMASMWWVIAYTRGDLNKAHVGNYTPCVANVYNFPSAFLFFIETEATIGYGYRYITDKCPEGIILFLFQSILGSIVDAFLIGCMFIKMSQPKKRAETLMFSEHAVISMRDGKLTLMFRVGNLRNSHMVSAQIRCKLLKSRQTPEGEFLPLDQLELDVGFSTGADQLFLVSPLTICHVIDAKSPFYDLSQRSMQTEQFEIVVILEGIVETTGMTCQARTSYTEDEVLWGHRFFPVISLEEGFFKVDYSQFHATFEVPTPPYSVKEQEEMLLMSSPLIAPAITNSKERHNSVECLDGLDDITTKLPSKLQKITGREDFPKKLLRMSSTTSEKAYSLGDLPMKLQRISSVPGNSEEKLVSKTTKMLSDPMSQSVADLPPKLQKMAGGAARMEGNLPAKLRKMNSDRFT
T1 sequence (P48051 1-423): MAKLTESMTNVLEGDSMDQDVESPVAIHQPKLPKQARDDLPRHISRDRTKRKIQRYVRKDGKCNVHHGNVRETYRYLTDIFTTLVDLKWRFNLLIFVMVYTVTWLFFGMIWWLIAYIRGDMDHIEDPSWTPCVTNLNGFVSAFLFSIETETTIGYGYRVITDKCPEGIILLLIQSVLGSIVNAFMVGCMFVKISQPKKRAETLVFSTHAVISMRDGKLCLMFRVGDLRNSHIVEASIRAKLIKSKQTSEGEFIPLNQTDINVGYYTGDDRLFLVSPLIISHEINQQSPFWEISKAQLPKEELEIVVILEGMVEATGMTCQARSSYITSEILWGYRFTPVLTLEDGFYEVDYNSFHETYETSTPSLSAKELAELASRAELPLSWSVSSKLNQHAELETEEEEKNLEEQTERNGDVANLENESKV
The assay is described as follows: traditional thallium flux assay (influx), dose response. The class given is cell-based. The conditions noted are these: traditional thallium flux method, CHO GIRK cells. As to the method:
FIG. 5: (Left) Overlay of normalized dose response curves acquired using new method. Data was acquired using different analytical methods or instruments, and all three result in similar profiles and reported EC50 values.
In a comparative test of the efflux method disclosed herein, EC50 values were determined using VU551 as the effector. Three different instruments were used to monitor the change in fluorescence: 1- kinetic imaging plate reader (Hamamatsu FDSS), 2 - fluorescent microscope; 3- fluorescent plate reader. FIG. 5 depicts an overlay of normalized dose response curves acquired using the efflux method described herein. Regardless of the method of data collection, all three instruments provided similar profiles and reported similar EC50 values. In the right graph of FIG. 5, a dose response curve acquired using traditional thallium flux assay methods is shown. […] The use of a plate reader to determine the EC50 in the efflux method produced the closest result to the traditional method.

The target of a further assay is T2, GIRK1/2 (Homo sapiens, UniProt P48051+P48549).
T2 construct: expressed in transfected cells; host or cells: CHO (Chinese hamster ovary) cells overexpressing GIRK1 and GIRK2
T2 sequence (P48549 1-501): T1 sequence (P48549 1-501)
T2 sequence (P48051 1-423): T1 sequence (P48051 1-423)
The assay can be described thus: thallium efflux assay by flow cytometry in CHO GIRK1/2 cells. In kind it is cell-based. How it is done:
CHO GIRK cells were treated with HEPES-Buffered Hanks Balanced Salt Solution (HHBSS, Control) or GIRK activator, VU0466551 (VU551). Data was acquired 50 minutes after addition of 1 μM VU551 using a BD Accuri C6 Flow Cytometer. […] FIG. 18 depicts an overlay of histograms of CHO GIRK1/2 cell fluorescence in treated and control cells.
FIG. 19 depicts the kinetic profile of CHO GIRK1/2 median cell fluorescence. Sample data was acquired before and at different time points after the addition of 3 μM GIRK activator, VU0466551 (VU551) or HHBSS (control). A slow increase in fluorescence is observed in the untreated group.
(In general: In flow cytometry, cells or beads pass a laser one at a time.)

Assay [2] addresses T1, GIRK. Also on record: expressed in transfected cells; host or cells: CHO-K1 cells overexpressing GIRK channels. Conditions: potassium indicator; plate reader or microscopy; read-out: EC50, literature reported value (calculated EC50s in line with it); cited from earlier work.

With `Cc1cc(NC(=O)Nc2ccc(F)c(F)c2)n(Cc2ccccc2)n1` [VU551], the pEC50 – broadly, −log10 of the EC50, conventionally taken in molar units – on GIRK [1] was 7.11; at GIRK [2], about 7.12. For the same molecule, the “Mean cell fluorescence of the treated group” value on GIRK1/2 (1 μM, 50 minutes after addition, BD Accuri C6 Flow Cytometer, control 4.5M RFUs) stood at 2.5 M. Moreover, at GIRK1/2 (3 μM, before and at different time points after addition), the “change in median cell fluorescence (kinetic profile)” value is given as “rapid loss in fluorescence”.
